Here are results for 4 compounds from US20150144521A1, “STORAGE AIDS COMPRISING PLANT PROTECTANTS AND THEIR USE” (priority 2012, published 2015).

The conditions of series [1]: 25° C.; cited from earlier work.
The nature of series [2]: losses due to evaporation (FIG. 1). The series is classed as physicochemical. Particulars: 30° C., after 30 days. An excerpt: FIG. 1 is a graph showing losses of isopropyl-N-(m-chlorophenyl) carbamate due to evaporation;
The next series has as its system potatoes. In words: sprouting on continued storage after large-scale treatment. The series is classed as in vivo. Here is the method:
Three to four repeated treatments of the product being stored are carried out in practice at regular time intervals.
A storage aid is therefore also suitable for sprouting suppression in seed potatoes for a limited period of time.
Therefore, seed potatoes must not, in principle, ever be treated directly with a growth regulator.

Regarding `CCOC(=O)Nc1ccccn1` [ethyl-2-pyridyl carbamate], the vapor pressure in series [1] is on record as 0.1 mbar.

On to trifluoromethyl-2-thienyl carbamate, for which the vapor pressure in series [1] is listed as 5.5 mbar.

With `CC(C)OC(=O)Nc1cccc(Cl)c1` [CIPC, isopropyl-N-(m-chlorophenyl)-carbamate], the “losses due to evaporation” value in series [2] was 0.03%. The “sprouting ability after conventional intensive hot fumigation (FIG. 5)” value with potatoes was “completely suppressed”.

Take `CC(C)OC(=O)Nc1ccccc1` [IPC, isopropyl-N-phenyl carbamate]: the vapor pressure in series [1] is on record as 0.144 mbar.
